One test has as its target T1, IKKε (Homo sapiens, UniProt Q14164).
T1 construct: His-tag; made in house; host or cells: Sf9 insect cells
T1 sequence (Q14164 1-716): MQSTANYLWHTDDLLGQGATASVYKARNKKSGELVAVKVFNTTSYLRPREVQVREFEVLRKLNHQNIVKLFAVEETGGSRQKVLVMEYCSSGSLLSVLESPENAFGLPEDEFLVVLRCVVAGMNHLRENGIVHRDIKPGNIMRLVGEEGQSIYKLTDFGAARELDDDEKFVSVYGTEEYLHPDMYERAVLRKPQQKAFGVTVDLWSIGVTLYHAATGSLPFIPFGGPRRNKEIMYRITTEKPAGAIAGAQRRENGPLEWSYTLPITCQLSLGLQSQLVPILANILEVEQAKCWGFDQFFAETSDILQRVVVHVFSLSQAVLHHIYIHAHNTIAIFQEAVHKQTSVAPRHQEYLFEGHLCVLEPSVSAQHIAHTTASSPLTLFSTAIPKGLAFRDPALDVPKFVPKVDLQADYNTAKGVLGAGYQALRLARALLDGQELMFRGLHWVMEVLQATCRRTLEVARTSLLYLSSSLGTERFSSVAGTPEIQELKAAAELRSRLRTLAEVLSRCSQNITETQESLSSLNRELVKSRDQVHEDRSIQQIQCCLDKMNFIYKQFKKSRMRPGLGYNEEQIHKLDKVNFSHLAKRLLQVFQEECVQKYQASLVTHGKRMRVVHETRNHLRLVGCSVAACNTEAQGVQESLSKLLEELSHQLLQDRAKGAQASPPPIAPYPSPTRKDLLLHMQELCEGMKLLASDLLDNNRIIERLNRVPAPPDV
In words: In-vitro IKKε kinase assay ([γ33]ATP filter-plate). The format is biochemical. The following applies: text bins; read-out: IC50 for inhibition of the kinase activity of IKKε. The method in brief: (§1)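 His-tagged Sf9-expressed kinases at 0.1 or 0.02 μg/ml (TBK1) and 0.1 or 0.015 μg/ml (IKKε) for normal and sensitized formats, with myelin basic protein or casein substrate. ATP was at 2×Km (60 μM TBK1, 32 μM IKKε) plus 0.3 μCi [γ33]ATP. Reactions ran 30-45 min, were captured on P-81 filters, and counts were normalized to DMSO.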

A further test concerns the target T2, TBK1 (Homo sapiens, UniProt Q9UHD2).
T2 construct: His-tag; made in house; host or cells: Sf9 insect cells
T2 sequence (Q9UHD2 1-729): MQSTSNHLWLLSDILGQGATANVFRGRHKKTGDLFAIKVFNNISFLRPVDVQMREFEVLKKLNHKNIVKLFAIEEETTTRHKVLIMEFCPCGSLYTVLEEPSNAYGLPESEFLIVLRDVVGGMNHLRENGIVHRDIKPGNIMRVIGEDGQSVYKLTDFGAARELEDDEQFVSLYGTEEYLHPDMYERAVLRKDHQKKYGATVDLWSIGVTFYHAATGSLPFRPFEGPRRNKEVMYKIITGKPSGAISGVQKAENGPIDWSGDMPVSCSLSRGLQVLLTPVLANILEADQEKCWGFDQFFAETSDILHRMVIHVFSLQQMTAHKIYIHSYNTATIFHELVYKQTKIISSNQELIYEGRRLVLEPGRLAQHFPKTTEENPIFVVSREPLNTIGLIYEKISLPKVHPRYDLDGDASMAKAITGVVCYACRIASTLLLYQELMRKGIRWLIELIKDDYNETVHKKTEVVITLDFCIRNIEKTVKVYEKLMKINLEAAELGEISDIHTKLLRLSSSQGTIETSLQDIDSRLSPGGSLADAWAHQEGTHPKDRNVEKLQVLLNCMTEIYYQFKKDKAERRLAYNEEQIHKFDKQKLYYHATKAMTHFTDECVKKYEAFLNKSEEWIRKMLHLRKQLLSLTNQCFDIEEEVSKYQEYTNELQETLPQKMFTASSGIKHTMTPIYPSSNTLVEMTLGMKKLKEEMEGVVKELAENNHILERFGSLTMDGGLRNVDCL
Nature of the test: In-vitro TBK1 kinase assay ([γ33]ATP filter-plate). The format is biochemical. The following applies: text bins; read-out: IC50 for inhibition of the kinase activity of TBK1. The gist of the method: as §1

Some results are limits rather than exact numbers.

In the case of `CC(C)C(=O)Nc1ccc(-c2ccnc(Nc3ccc(F)c(OCCCN4CCOCC4)c3)n2)cc1C#N` [compound 411, N-{2-Cyano-4-[2-({4-fluoro-3-[3-(morpholin-4-yl)propoxy]phenyl}amino)pyrimidin-4-yl]phenyl}-2-methylpropanamide], the IC50 fell in the range of 5 to 50 nM on IKKε and 10 to 100 nM at TBK1.

Take `N#Cc1cc(-c2ccnc(Nc3ccc(N4CCOCC4)cc3)n2)ccc1OC1CCN(C(=O)CO)C1` (stereo not drawn) [Example 96, 2-{[1-(Hydroxyacetyl)pyrrolidin-3-yl]oxy}-5-(2-{[4-(morpholin-4-yl)phenyl]amino}pyrimidin-4-yl)benzonitrile]: the IC50 at IKKε is less than 5 nM; on TBK1, less than 10 nM.

Turning to `N#Cc1cc(-c2ccnc(Nc3ccccc3)n2)ccc1OC1CCOCC1` [Example 12], the figures for the IC50 on IKKε and at TBK1 were 5 to 50 nM and 10 to 100 nM, respectively.

On to `N#Cc1cc(-c2ccnc(Nc3ccc(CS(=O)(=O)N4CCCC4)cc3)n2)ccc1OC1CCOCC1` [compound 403, 5-[2-({4-[(Pyrrolidin-1-ylsulfonyl)methyl]phenyl}amino)pyrimidin-4-yl]-2-(tetrahydro-2H-pyran-4-yloxy)benzonitrile], for which the IC50 on IKKε was less than 5 nM; on TBK1, less than 10 nM.

Take `COc1ccc(-c2ccnc(Nc3ccc(OC4CCN(C)CC4)cc3)n2)cc1C#N` [Example 288, 2-Methoxy-5-[2-({4-[(1-methylpiperidin-4-yl)oxy]phenyl}amino)pyrimidin-4-yl]benzonitrile]: the IC50 at IKKε is 5 to 50 nM; on TBK1, less than 10 nM.

Turning to `COc1cc(Nc2nccc(-c3ccc(OC4CCN(C(=O)[C@H](C)O)CC4)c(C#N)c3)n2)ccc1C(=O)NCCN(C)C` [Example 287, 4-({4-[3-cyano-4-({1-[(2S)-2-hydroxypropanoyl]piperidin-4-yl}oxy)phenyl]pyrimidin-2-yl}amino)-N-[2-(dimethylamino)ethyl]-2-methoxybenzamide], the IC50 at IKKε is less than 5 nM; on TBK1, less than 10 nM.

Take `N#Cc1cc(-c2ccnc(Nc3ccc(N)cc3)n2)ccc1OC1CCOCC1` [Example 184, 5-{2-[(4-Aminophenyl)amino]pyrimidin-4-yl}-2-(tetrahydro-2H-pyran-4-yloxy)benzonitrile]: the IC50 was less than 5 nM on IKKε and less than 10 nM on TBK1.

For the compound `CN(C)c1cccc(Nc2nccc(-c3ccc(OC4CCOCC4)c(C#N)c3)n2)c1` [compound 539, 5-(2-{[3-(Dimethylamino)phenyl]amino}pyrimidin-4-yl)-2-(tetrahydro-2H-pyran-4-yloxy)benzonitrile], the results for the IC50 at IKKε and on TBK1 were less than 5 nM and less than 10 nM, respectively.

As to `CC(C)C(=O)Nc1ccc(-c2ccnc(Nc3cccc(CC(=O)N4CCOCC4)c3)n2)cc1C#N` [compound 421, N-{2-cyano-4-[2-({3-[2-(morpholin-4-yl)-2-oxoethyl]phenyl}amino)pyrimidin-4-yl]phenyl}-2-methylpropanamide], the IC50 was in the range of 5 to 50 nM on IKKε and 10 to 100 nM at TBK1.

`N#Cc1cccc(-c2ccnc(Nc3cccc(NC(=O)NC4CCCC4)c3)n2)c1` [Example 201, 1-(3-{[4-(3-Cyanophenyl)pyrimidin-2-yl]amino}phenyl)-3-cyclopentylurea]: the IC50 at IKKε lay within 5 to 50 nM; at TBK1, 10 to 100 nM.

Turning to `N#Cc1cc(-c2ccnc(Nc3ccc(N4CCOCC4)cc3)n2)ccc1OC1CNC1` [Example 143, 2-(azetidin-3-yloxy)-5-(2-{[4-(morpholin-4-yl)phenyl]amino}pyrimidin-4-yl)benzonitrile], the values for the IC50 at IKKε and on TBK1 were 5 to 50 nM and less than 10 nM, respectively.

On to `CC1(C)CC1C(=O)Nc1ccc(-c2ccnc(Nc3ccc(N4CCOCC4)cc3)n2)cc1C#N` (stereo not drawn) [compound 554, N-[2-Cyano-4-(2-{[4-(morpholin-4-yl)phenyl]amino}pyrimidin-4-yl)phenyl]-2,2-dimethylcyclopropane-carboxamide], for which the IC50 is 5 to 50 nM on IKKε and less than 10 nM on TBK1.

The values are drawn from patent US20150352108A1, “AMINO-PYRIMIDINE COMPOUNDS AS INHIBITORS OF TBK1 AND/OR IKK EPSILON” (Alzheimer's Institute of America, priority 2009, published 2015).
